Literature values as cited in patent US20170333565A1, “TLR9 TARGETED CYTOTOXIC AGENTS” (H. LEE MOFFITT CANCER CENTER AND RESEARCH INSTITUTE, INC., priority 2014, published 2017).

System: myelodysplastic syndromes (MDS)
Settings: cited from earlier work

Nc1cccc2c1CN(C1CCC(=O)NC1=O)C2=O (centres unmarked) [LEN, lenalidomide]
clinical response (majority of patients with a chromosome 5q deletion (del5q)): sustained red blood cell transfusion independence | median duration of response (patients with del5q MDS): 2.5 years
